ChEMBL document CHEMBL3885861, “Open TG-GATES”

Species on record: Rattus norvegicus
Experiment: Open TG-GATES - Regimen: Single
Type: toxicity, organism-based, Sprague-Dawley
Set-up: regimen Single, gender Male, age 6 weeks
Conditions: in vivo, po, 100 mg/kg, route gavage, dose level Low; for APTT / Bas / Eos / Fbg / Hb / Ht / Lym / MCH / MCHC / MCV / Mono / Neu / PT / Plat / RBC / Ret / WBC: tissue Blood; for KIDNEY_L / KIDNEY_R / KIDNEY_TOTAL: tissue Kidney; for LIVER: tissue Liver; for A/G / ALP / ALT / AST / BUN / CRE / Ca / Cl / DBIL / GLC / IP / K / LDH / Na / PL / RALB / TBIL / TC / TG / TP / gamma-GTP: tissue Plasma

For `CCOC(=O)CCC(=O)O[C@H]1[C@H](O[C@@H]2[C@@H](C)[C@H](O[C@H]3C[C@@](C)(OC)[C@@H](O)[C@H](C)O3)[C@@H](C)C(=O)O[C@H](CC)[C@@](C)(O)[C@H](O)[C@@H](C)C(=O)[C@H](C)C[C@@]2(C)O)O[C@H](C)C[C@@H]1N(C)C` [ERYTHROMYCIN ETHYLSUCCINATE], the TERMINAL_BW (3 h) was 214.5 g, the APTT (3 h) was 22.9 s and the Bas (3 h) was 0%. It also gave an Eos (3 h) of 0.8%, a Fbg (3 h) of 311.4 mg/dL and a Hb (3 h) of 13.2 g/dL. It also gave a Ht (3 h) of 39.7%, a Lym (3 h) of 77.4% and an MCH (3 h) of 21.4 pg. The MCHC (3 h) was 33.2%, the MCV (3 h) was 64.4 fL and the Mono (3 h) was 2.6%. For the same molecule, the Neu (3 h) was 18.6%, the PT (3 h) was 16.2 s and the Plat (3 h) was 111.6 x10_4/uL. It also gave an RBC (3 h) of 617.6 x10_4/ul, a Ret (3 h) of 8.2% and a WBC (3 h) of 78.3 x10_2/uL. For the same molecule, the KIDNEY_L (3 h) was 0.9 g, the KIDNEY_R (3 h) was 1 g and the KIDNEY_TOTAL (3 h) was 1.9 g. The LIVER (3 h) was 9.9 g, the A/G (3 h) was 1.2 and the ALP (3 h) was 1930.6 IU/L. The ALT (3 h) was 47.6 IU/L, the AST (3 h) was 78 IU/L and the BUN (3 h) was 12.8 mg/dL. For the same molecule, the CRE (3 h) was 0.1 mg/dL, the Ca (3 h) was 10.5 mg/dL and the Cl (3 h) was 102.8 meq/L. The DBIL (3 h) was 0.006 mg/dL, the GLC (3 h) was 189.2 mg/dL and the IP (3 h) was 9.1 mg/dL. The K (3 h) was 3.8 meq/L, the LDH (3 h) was 147.2 IU/L and the Na (3 h) was 139.2 meq/L. It also gave a PL (3 h) of 142.6 mg/dL, an RALB (3 h) of 2.9 g/dL and a TBIL (3 h) of 0.02 mg/dL. It also gave a TC (3 h) of 73 mg/dL, a TG (3 h) of 70.2 mg/dL and a TP (3 h) of 5.5 g/dL. It also gave a gamma-GTP (3 h) of 1 IU/L, a TERMINAL_BW (6 h) of 213.8 g and an APTT (6 h) of 22.8 s. For the same molecule, the Bas (6 h) was 0%, the Eos (6 h) was 0.8% and the Fbg (6 h) was 308 mg/dL. The Hb (6 h) was 13.2 g/dL, the Ht (6 h) was 39.8% and the Lym (6 h) was 76.6%. For the same molecule, the MCH (6 h) was 20.9 pg, the MCHC (6 h) was 33.1% and the MCV (6 h) was 63.4 fL. It also gave a Mono (6 h) of 2.6%, a Neu (6 h) of 18.8% and a PT (6 h) of 16 s. It also gave a Plat (6 h) of 118.8 x10_4/uL, an RBC (6 h) of 628 x10_4/ul and a Ret (6 h) of 7.8%. The WBC (6 h) was 108.5 x10_2/uL, the KIDNEY_L (6 h) was 1 g and the KIDNEY_R (6 h) was 1 g. For the same molecule, the KIDNEY_TOTAL (6 h) was 2 g, the LIVER (6 h) was 9.2 g and the A/G (6 h) was 1.1. It also gave an ALP (6 h) of 1420.4 IU/L, an ALT (6 h) of 40.2 IU/L and an AST (6 h) of 72 IU/L. The BUN (6 h) was 12 mg/dL, the CRE (6 h) was 0.2 mg/dL and the Ca (6 h) was 10.5 mg/dL. The Cl (6 h) was 104 meq/L, the DBIL (6 h) was 0 mg/dL and the GLC (6 h) was 187.6 mg/dL. The IP (6 h) was 9.5 mg/dL, the K (6 h) was 4.2 meq/L and the LDH (6 h) was 182 IU/L. The Na (6 h) was 138 meq/L, the PL (6 h) was 132.2 mg/dL and the RALB (6 h) was 2.8 g/dL. It also gave a TBIL (6 h) of 0.02 mg/dL, a TC (6 h) of 69.8 mg/dL and a TG (6 h) of 63.4 mg/dL. It also gave a TP (6 h) of 5.3 g/dL, a gamma-GTP (6 h) of 1.2 IU/L and a TERMINAL_BW (9 h) of 216.4 g. For the same molecule, the APTT (9 h) was 23.3 s, the Bas (9 h) was 0% and the Eos (9 h) was 1%. It also gave a Fbg (9 h) of 315 mg/dL, a Hb (9 h) of 13.3 g/dL and a Ht (9 h) of 40.4%. For the same molecule, the Lym (9 h) was 80.4%, the MCH (9 h) was 21.5 pg and the MCHC (9 h) was 33%. The MCV (9 h) was 65 fL, the Mono (9 h) was 2% and the Neu (9 h) was 15.8%. It also gave a PT (9 h) of 15.6 s, a Plat (9 h) of 121.2 x10_4/uL and an RBC (9 h) of 622 x10_4/ul. It also gave a Ret (9 h) of 8%, a WBC (9 h) of 73.2 x10_2/uL and a KIDNEY_L (9 h) of 1 g. The KIDNEY_R (9 h) was 1.1 g, the KIDNEY_TOTAL (9 h) was 2.1 g and the LIVER (9 h) was 9.2 g. The A/G (9 h) was 1.2, the ALP (9 h) was 1398.8 IU/L and the ALT (9 h) was 32.4 IU/L. The AST (9 h) was 64 IU/L, the BUN (9 h) was 12.4 mg/dL and the CRE (9 h) was 0.1 mg/dL. It also gave a Ca (9 h) of 10.6 mg/dL, a Cl (9 h) of 105.4 meq/L and a DBIL (9 h) of 0 mg/dL. For the same molecule, the GLC (9 h) was 188.8 mg/dL, the IP (9 h) was 9.5 mg/dL and the K (9 h) was 4.2 meq/L. It also gave an LDH (9 h) of 145.6 IU/L, a Na (9 h) of 138.6 meq/L and a PL (9 h) of 136 mg/dL. The RALB (9 h) was 3 g/dL, the TBIL (9 h) was 0.012 mg/dL and the TC (9 h) was 78.2 mg/dL. For the same molecule, the TG (9 h) was 87.4 mg/dL, the TP (9 h) was 5.5 g/dL and the gamma-GTP (9 h) was 1.4 IU/L. The TERMINAL_BW (24 h) was 222.7 g, the APTT (24 h) was 21.4 s and the Bas (24 h) was 0%. For the same molecule, the Eos (24 h) was 0.8%, the Fbg (24 h) was 326.2 mg/dL and the Hb (24 h) was 13.8 g/dL. It also gave a Ht (24 h) of 41.6%, a Lym (24 h) of 86.4% and an MCH (24 h) of 20.6 pg. It also gave an MCHC (24 h) of 33.2%, an MCV (24 h) of 62.2 fL and a Mono (24 h) of 3%. It also gave a Neu (24 h) of 8.2%, a PT (24 h) of 16 s and a Plat (24 h) of 122.9 x10_4/uL. It also gave an RBC (24 h) of 670 x10_4/ul, a Ret (24 h) of 6.7% and a WBC (24 h) of 102.3 x10_2/uL. For the same molecule, the KIDNEY_L (24 h) was 0.9 g, the KIDNEY_R (24 h) was 1 g and the KIDNEY_TOTAL (24 h) was 1.9 g. It also gave an LIVER (24 h) of 9.5 g, an A/G (24 h) of 1.3 and an ALP (24 h) of 1407.8 IU/L. For the same molecule, the ALT (24 h) was 43.4 IU/L, the AST (24 h) was 70.4 IU/L and the BUN (24 h) was 14 mg/dL. It also gave a CRE (24 h) of 0.1 mg/dL, a Ca (24 h) of 10.6 mg/dL and a Cl (24 h) of 106.6 meq/L. It also gave a DBIL (24 h) of 0.002 mg/dL, a GLC (24 h) of 200.6 mg/dL and an IP (24 h) of 7.7 mg/dL. The K (24 h) was 4.1 meq/L, the LDH (24 h) was 183.2 IU/L and the Na (24 h) was 142.4 meq/L. It also gave a PL (24 h) of 140.4 mg/dL, an RALB (24 h) of 3.1 g/dL and a TBIL (24 h) of 0.03 mg/dL. It also gave a TC (24 h) of 83 mg/dL, a TG (24 h) of 71.6 mg/dL and a TP (24 h) of 5.5 g/dL. For the same molecule, the gamma-GTP (24 h) was 1.4 IU/L.
